Assays:
[1] = test system: D. immitis microfilariae; test: Dirofilaria immitis, microfilariae (DiMF) in vitro motility assay; format: cell-based; details: Dirofilaria immitis, 72 h, read-out: DiMF minimally effective dose (MEC)
[2] = test system: Haemonchus contortus L3; test: microbe, parasite or virus in culture; format: cell-based; details: Haemonchus contortus, 96 h, read-out: HcL3 Minimal Effective Concentration (MEC)

| Structure (SMILES) | minimal effective concentration [1] [µM] | minimal effective concentration [2] [µM] |
| --- | --- | --- |
| O=C(NCc1ccnc(Cl)c1)n1c2c(c3ccc(Cl)cc31)CN(C/C=C/c1ccc(F)cc1)CC2 [Example 217, (E)-7-chloro-N-((2-chloropyridin-4-yl)methyl)-2-(3-(4-fluorophenyl)allyl)-1,2,3,4-tetrahydro-5H-pyrido[4,3-b]indole-5-carboxamide] | 3.3 | 1.8 |
| O=C(NCc1ccnc(Cl)c1)n1c2c(c3c(Cl)cccc31)CN(C/C=C/c1ccc(F)cc1)CC2 [Example 218, (E)-9-chloro-N-((2-chloropyridin-4-yl)methyl)-2-(3-(4-fluorophenyl)allyl)-1,2,3,4-tetrahydro-5H-pyrido[4,3-b]indole-5-carboxamide] | 10 | 1 |
| COc1ccc(/C=C/CN2CCc3c(c4ccc(Cl)cc4n3C(=O)NCc3ccnc(Cl)c3)C2)cc1 [Example 219, (E)-7-chloro-N-((2-chloropyridin-4-yl)methyl)-2-(3-(4-methoxyphenyl)allyl)-1,2,3,4-tetrahydro-5H-pyrido[4,3-b]indole-5-carboxamide] | 3.3 | 0.5 |
| COc1ccc(/C=C/CN2CCc3c(c4c(Cl)cccc4n3C(=O)NCc3ccnc(Cl)c3)C2)cc1 [Example 220, (E)-9-chloro-N-((2-chloropyridin-4-yl)methyl)-2-(3-(4-methoxyphenyl)allyl)-1,2,3,4-tetrahydro-5H-pyrido[4,3-b]indole-5-carboxamide] | 10 | 3.3 |
| O=C(NCc1ccnc(Cl)c1)n1c2c(c3ccc(Cl)cc31)CN(C/C=C/c1ccc(OC(F)(F)F)cc1)CC2 [Example 221, (E)-7-chloro-N-((2-chloropyridin-4-yl)methyl)-2-(3-(4-(trifluoromethoxy)-phenyl)allyl)-1,2,3,4-tetrahydro-5H-pyrido[4,3-b]indole-5-carboxamide] | 3.3 | > 100 |
| O=C(NCc1ccnc(Cl)c1)n1c2c(c3c(Cl)cccc31)CN(C/C=C/c1ccc(OC(F)(F)F)cc1)CC2 [Example 222, (E)-9-chloro-N-((2-chloropyridin-4-yl)methyl)-2-(3-(4-(trifluoromethoxy)-phenyl)allyl)-1,2,3,4-tetrahydro-5H-pyrido[4,3-b]indole-5-carboxamide] | 10 | > 100 |
| O=C(NCc1ccnc(Cl)c1)n1c2c(c3ccc(Cl)cc31)CN(C/C=C/c1ccc(C(F)(F)F)cc1)CC2 [Example 223, (E)-7-chloro-N-((2-chloropyridin-4-yl)methyl)-2-(3-(4-(trifluoromethyl)-phenyl)allyl)-1,2,3,4-tetrahydro-5H-pyrido[4,3-b]indole-5-carboxamide] | 3.3 | 10 |
| O=C(NCc1ccnc(F)c1)n1c2c(c3ccc(Cl)cc31)CN(C/C=C/c1ccc(Cl)c(F)c1)CC2 [Example 224, (E)-7-chloro-2-(3-(4-chloro-3-fluorophenyl)allyl)-N-((2-fluoropyridin-4-yl)methyl)-1,2,3,4-tetrahydro-5H-pyrido[4,3-b]indole-5-carboxamide] | 3.3 | 1.8 |
| O=C(NCc1ccnc(F)c1)n1c2c(c3ccc(Cl)cc31)CN(C/C=C/c1ccc(F)cc1F)CC2 [Example 226, (E)-7-chloro-2-(3-(2,4-difluorophenyl)allyl)-N-((2-fluoropyridin-4-yl)methyl)-1,2,3,4-tetrahydro-5H-pyrido[4,3-b]indole-5-carboxamide] | 1.8 | > 100 |
| O=C(NCc1ccnc(F)c1)n1c2c(c3ccc(Cl)cc31)CN(C/C=C/c1ccc(F)c(Cl)c1)CC2 [Example 227, (E)-7-chloro-2-(3-(3-chloro-4-fluorophenyl)allyl)-N-((2-fluoropyridin-4-yl)methyl)-1,2,3,4-tetrahydro-5H-pyrido[4,3-b]indole-5-carboxamide] | 1.8 | 5.7 |
| O=C(NCc1cnc(Cl)s1)n1c2c(c3c(Cl)cccc31)CN(C/C=C/c1ccc(Cl)cc1)CC2 [Example 231, (E)-9-chloro-2-(3-(4-chlorophenyl)allyl)-N-((2-chlorothiazol-5-yl)methyl)-1,2,3,4-tetrahydro-5H-pyrido[4,3-b]indole-5-carboxamide] | 13.5 | 3.3 |
| O=C(NCc1ccnc(Cl)c1)n1c2c(c3cc(Cl)ccc31)CN(C/C=C/c1ccc(Cl)c(F)c1)CC2 [Example 232, (E)-8-chloro-2-(3-(4-chloro-3-fluorophenyl)allyl)-N-((2-chloropyridin-4-yl)methyl)-1,2,3,4-tetrahydro-5H-pyrido[4,3-b]indole-5-carboxamide] | 10 | 1 |
| O=C(NCc1ccnc(Cl)c1)n1c2c(c3cc(Cl)ccc31)CN(C/C=C/c1ccc(Cl)cc1F)CC2 [Example 233, (E)-8-chloro-2-(3-(4-chloro-2-fluorophenyl)allyl)-N-((2-chloropyridin-4-yl)methyl)-1,2,3,4-tetrahydro-5H-pyrido[4,3-b]indole-5-carboxamide] | 1.8 | 0.01 |
| N#Cc1cc(/C=C/CN2CCc3c(c4cc(Cl)ccc4n3C(=O)NCc3ccnc(Cl)c3)C2)ccc1F [Example 234, (E)-8-chloro-N-((2-chloropyridin-4-yl)methyl)-2-(3-(3-cyano-4-fluorophenyl)allyl)-1,2,3,4-tetrahydro-5H-pyrido[4,3-b]indole-5-carboxamide] | 3.3 | 0.1 |
| N#Cc1ccc(/C=C/CN2CCc3c(c4cc(Cl)ccc4n3C(=O)NCc3ccnc(Cl)c3)C2)cc1F [Example 235, (E)-8-chloro-N-((2-chloropyridin-4-yl)methyl)-2-(3-(4-cyano-3-fluorophenyl)allyl)-1,2,3,4-tetrahydro-5H-pyrido[4,3-b]indole-5-carboxamide] | > 100 | 0.1 |
| O=C(NCc1ccnc(Cl)c1)n1c2c(c3cc(Cl)ccc31)CN(C/C=C/c1ccc(F)cc1Cl)CC2 [Example 237, (E)-8-chloro-2-(3-(2-chloro-4-fluorophenyl)allyl)-N-((2-chloropyridin-4-yl)methyl)-1,2,3,4-tetrahydro-5H-pyrido[4,3-b]indole-5-carboxamide] | 1.8 | 0.03 |
| N#Cc1ccc(/C=C/CN2CCc3c(c4cc(Cl)ccc4n3C(=O)NCc3ccnc(Cl)c3)C2)cc1 [Example 241, (E)-8-chloro-N-((2-chloropyridin-4-yl)methyl)-2-(3-(4-cyanophenyl)allyl)-1,2,3,4-tetrahydro-5H-pyrido[4,3-b]indole-5-carboxamide] | 13.5 | 0.4 |
| O=C(NCc1ccnc(Cl)c1)n1c2c(c3cc(Cl)ccc31)CN(C/C=C/c1ccc(Cl)cc1)CC2 [Example 242, (E)-8-chloro-2-(3-(4-chlorophenyl)allyl)-N-((2-chloropyridin-4-yl)methyl)-1,2,3,4-tetrahydro-5H-pyrido[4,3-b]indole-5-carboxamide] | 10 | 0.7 |
| O=C(NCc1ccnc(Cl)c1)n1c2c(c3cc(Cl)ccc31)CN(C/C=C/c1ccc(Cl)c(Cl)c1)CC2 [Example 243, (E)-8-chloro-N-((2-chloropyridin-4-yl)methyl)-2-(3-(3,4-dichlorophenyl)allyl)-1,2,3,4-tetrahydro-5H-pyrido[4,3-b]indole-5-carboxamide] | 10 | 1.3 |
| O=C(NCc1ccnc(Cl)c1)n1c2c(c3cc(Cl)ccc31)CN(C/C=C/c1ccc(F)cc1)CC2 [Example 244, (E)-8-chloro-N-((2-chloropyridin-4-yl)methyl)-2-(3-(4-fluorophenyl)allyl)-1,2,3,4-tetrahydro-5H-pyrido[4,3-b]indole-5-carboxamide] | 10 | 0.7 |
| O=C(NCc1ccnc(Cl)c1)n1c2c(c3cc(Cl)ccc31)CN(C/C=C/c1ccc(OC(F)(F)F)cc1)CC2 [Example 245, (E)-8-chloro-N-((2-chloropyridin-4-yl)methyl)-2-(3-(4-(trifluoromethoxy)-phenyl)allyl)-1,2,3,4-tetrahydro-5H-pyrido[4,3-b]indole-5-carboxamide] | 11.9 | 3.3 |
| O=C(NCc1ccnc(Cl)c1)n1c2c(c3cc(Cl)ccc31)CN(C/C=C/c1ccc(C(F)(F)F)cc1)CC2 [Example 246, (E)-8-chloro-N-((2-chloropyridin-4-yl)methyl)-2-(3-(4-(trifluoromethyl)-phenyl)allyl)-1,2,3,4-tetrahydro-5H-pyrido[4,3-b]indole-5-carboxamide] | 10 | 3.3 |
| O=C(NCc1ccnc(Cl)c1)n1c2c(c3cc(Cl)ccc31)CN(Cc1ccc3cc(Cl)ccc3n1)CC2 [Example 247, 8-chloro-N-((2-chloropyridin-4-yl)methyl)-2-((6-chloroquinolin-2-yl)methyl)-1,2,3,4-tetrahydro-5H-pyrido[4,3-b]indole-5-carboxamide] | 1.8 | 1 |
| O=C(NCc1ccnc(Cl)c1)n1c2c(c3cc(Cl)ccc31)CN(C/C=C/c1ccncc1)CC2 [Example 248, (E)-8-chloro-N-((2-chloropyridin-4-yl)methyl)-2-(3-(pyridin-4-yl)allyl)-1,2,3,4-tetrahydro-5H-pyrido[4,3-b]indole-5-carboxamide] | 0.5 | 0.4 |
| O=C(NCc1ccnc(F)c1)n1c2c(c3cc(Cl)ccc31)CN(C/C=C/c1ccc(Cl)c(F)c1)CC2 [Example 254, (E)-8-chloro-2-(3-(4-chloro-3-fluorophenyl)allyl)-N-((2-fluoropyridin-4-yl)methyl)-1,2,3,4-tetrahydro-5H-pyrido[4,3-b]indole-5-carboxamide] | 100 | 3.3 |
